Assay results published in paper PMC12221116, “Novel Quinazolinones Active against Multidrug‐Resistant Mycobacterium Tuberculosis: Synthesis, Antimicrobial Evaluation, and in Silico Exploration of Penicillin‐Binding Protein 1A as a Potential Target” (Chemmedchem, 2025).
Values after ≈ are worked out from the molar mass of the structure shown. Where two headings read alike, the source gives them in different places.

Key:
[1] = system: Mtb H37Rv; experiment: Microplate Alamar Blue assay, MIC; format: cell-based, Mycobacterium tuberculosis; conditions: for MIC: Mycobacterium tuberculosis, H37RV
[2] = system: Mtb H37Ra; experiment: Microdilution broth resazurin assay, MIC; format: cell-based, Mycobacterium tuberculosis
[3] = system: M. kansasii; experiment: Microplate Alamar Blue assay, MIC; format: cell-based, Mycobacterium kansasii; conditions: for MIC: Mycobacterium kansasii, read-out: Antimycobacterial Activity MIC M. kans.
[4] = system: M. avium; experiment: Microdilution broth resazurin assay, MIC; format: cell-based, Mycobacterium avium
[5] = system: M. smegmatis; experiment: Microdilution broth resazurin assay, MIC; format: cell-based, Mycolicibacterium smegmatis
[6] = system: M. aurum; experiment: Microdilution broth resazurin assay, MIC; format: cell-based, Mycolicibacterium aurum
[7] = Microplate Alamar Blue assay, read-out: Antimycobacterial Activity MIC Mtb H37Rv
[8] = Mycobacterium tuberculosis, H37RA; read-out: Antimycobacterial Activity MIC Mtb H37Ra
[9] = Mycobacterium avium, read-out: Antimycobacterial Activity MIC M. avium
[10] = Mycolicibacterium smegmatis, read-out: Antimycobacterial Activity MIC M. smeg.
[11] = Mycolicibacterium aurum, read-out: Antimycobacterial Activity MIC M. aurum
[12] = Mycobacterium avium; read-out: Antimycobacterial Activity MIC M. avium
[13] = Mycolicibacterium smegmatis; read-out: Antimycobacterial Activity MIC M. smeg.
[14] = Mycolicibacterium aurum; read-out: Antimycobacterial Activity MIC M. aurum
[15] = read-out: Antimycobacterial Activity MIC Mtb H37Rv, Table S5 matching pairs series A and B
[16] = Mycobacterium tuberculosis, H37RA, read-out: Antimycobacterial Activity MIC Mtb H37Ra
[17] = Table S5 matching pairs series A and B
[18] = Mycobacterium tuberculosis, H37RA; internal quality controls (standards); read-out: MINIMUM INHIBITORY CONCENTRATION Mycobacterium tuberculosis H37Ra
[19] = Mycobacterium avium, DSM44156; internal quality controls (standards); read-out: MINIMUM INHIBITORY CONCENTRATION Mycobacterium avium DSM 44156
[20] = Mycolicibacterium smegmatis, DSM43465; internal quality controls (standards); read-out: MINIMUM INHIBITORY CONCENTRATION Mycolicibacterium smegmatis DSM 43465
[21] = Mycolicibacterium aurum, DSM43999; internal quality controls (standards); read-out: MINIMUM INHIBITORY CONCENTRATION Mycolicibacterium aurum DSM 43999

SMILES	MIC [1, 7] [µg/mL]	MIC [2, 8] [µg/mL]	MIC [3] [µg/mL]	MIC [4, 9] [µg/mL]	MIC [5, 10] [µg/mL]	MIC [6, 11] [µg/mL]	other results
Cc1nc2cc(Cl)ccc2c(=O)n1/N=C/c1ccc(O)cc1 [Compound 37]	> 50	≥ 62.5	> 50	≥ 62.5	≥ 62.5	≥ 62.5	
Cc1nc2cc(Cl)ccc2c(=O)n1/N=C/c1ccccc1F [Compound 42]	> 25	≥ 31.2	> 25	≥ 31.2	≥ 31.2	≥ 31.2	
Cc1nc2cc(Cl)ccc2c(=O)n1/N=C/c1ccccn1 [Compound 29]	> 25	≥ 31.2	> 25	≥ 31.2	≥ 31.2	≥ 31.2	
Cc1nc2cc(Cl)ccc2c(=O)n1Cc1ccccc1F [Compound 18]	> 100	≥ 500	> 100				MIC [4, 12]: ≥ 500 µg/mL; MIC [5, 13]: ≥ 500 µg/mL; MIC [6, 14]: ≥ 500 µg/mL
Cc1nc2cc(Cl)ccc2c(=O)n1/N=C/c1ccccc1Cl [Compound 49]	> 25	≥ 31.2	> 25	≥ 31.2	≥ 31.2	≥ 31.2	
Cc1nc2cc(Cl)ccc2c(=O)n1/N=C/c1ccc(F)cc1 [Compound 44]	> 25	≥ 31.2	> 25	≥ 31.2	≥ 31.2	≥ 31.2	
CC1Nc2ccccc2C(=O)N1Cc1ccc(Cl)c(Cl)c1 (stereo not shown) [Compound 11]	> 100		> 100				MIC [1, 15]: > 100 µg/mL; Antimycobacterial Activity MIC Mtb H37Ra [2]: ≥250 µg/mL; MIC [2, 16]: ≥ 250 µg/mL; MIC [4, 12]: ≥ 250 µg/mL; Antimycobacterial Activity MIC M. avium [4, 17]: ≥ 250 µg/mL; MIC [5, 13]: ≥ 250 µg/mL; Antimycobacterial Activity MIC M. smeg. [5, 17]: ≥ 250 µg/mL; MIC [6, 14]: ≥ 250 µg/mL; Antimycobacterial Activity MIC M. aurum [6, 17]: ≥ 250 µg/mL
Cc1nc2cc(Cl)ccc2c(=O)n1/N=C/c1cccc(F)c1 [Compound 43]	> 25	≥ 62.5	> 25	≥ 62.5	≥ 62.5	≥ 62.5	
Cc1nc2cc(Cl)ccc2c(=O)n1/N=C/c1ccccc1O [Compound 35]	> 50	≥ 31.2	> 50	≥ 31.2	≥ 31.2	≥ 31.2	
Cc1nc2cc(Cl)ccc2c(=O)n1/N=C/c1cccc([N+](=O)[O-])c1 [Compound 27]	> 50	≥ 62.5	> 50	≥ 62.5	≥ 62.5	≥ 62.5	
Cc1ccccc1/C=N/n1c(C)nc2cc(Cl)ccc2c1=O [Compound 46]	> 25	≥ 62.5	> 25	≥ 62.5	≥ 62.5	≥ 62.5	
Cc1nc2cc(Cl)ccc2c(=O)n1Cc1ccc2ccccc2c1 [Compound 23]	> 100		> 100	≥ 125	≥ 125	≥ 125	MIC [1, 15]: > 100 µg/mL; Antimycobacterial Activity MIC Mtb H37Ra [2]: ≥125 µg/mL; MIC [2, 16]: ≥ 125 µg/mL; Antimycobacterial Activity MIC M. avium [4]: ≥125 µg/mL; Antimycobacterial Activity MIC M. smeg. [5]: ≥125 µg/mL; Antimycobacterial Activity MIC M. aurum [6]: ≥125 µg/mL
Cc1nc2ccccc2c(=O)n1Cc1cc(F)cc(C(F)(F)F)c1 [Compound 9]							Antimycobacterial Activity MIC Mtb H37Rv ([1]; Microplate Alamar Blue assay): >100 µg/mL; Antimycobacterial Activity MIC Mtb H37Ra [2]: 125 µg/mL; Antimycobacterial Activity MIC M. kans. [3]: >100 µg/mL; Antimycobacterial Activity MIC M. avium [4]: 62.5 µg/mL; Antimycobacterial Activity MIC M. smeg. [5]: ≥500 µg/mL; Antimycobacterial Activity MIC M. aurum [6]: 62.5 µg/mL
O=C(O)c1cn(C2CC2)c2cc(N3CCNCC3)c(F)cc2c1=O [CIP, ciprofloxacin, reference compound]			0.25 (≈ 0.754 µM)				MIC [2, 16]: 0.25 µg/mL (≈ 0.754 µM); MIC [2, 18]: 0.125 to 0.25 µg/mL (≈ 0.377 to 0.754 µM); MIC [4, 19]: 0.5 µg/mL (≈ 1.51 µM); MIC [4, 12]: 1.56 µg/mL (≈ 4.71 µM); MIC [5, 20]: 0.0625 to 0.125 µg/mL (≈ 0.189 to 0.377 µM); MIC [5, 13]: 0.125 µg/mL (≈ 0.377 µM); MIC [6, 21]: 0.0078 to 0.0156 µg/mL (≈ 0.0235 to 0.0471 µM); MIC [6, 14]: 0.0156 µg/mL (≈ 0.0472 µM)
CO[C@H]1/C=C/O[C@@]2(C)Oc3c(C)c(O)c4c(O)c(c(/C=N/N5CCN(C)CC5)c(O)c4c3C2=O)NC(=O)/C(C)=C\C=C\[C@H](C)[C@H](O)[C@@H](C)[C@@H](O)[C@@H](C)[C@H](OC(C)=O)[C@@H]1C [RIF, rifampicin]		0.00156 (≈ 0.0019 µM)	0.025 (≈ 0.0304 µM)				MIC [2, 18]: 0.00156 to 0.0031 µg/mL (≈ 0.0019 to 0.00377 µM); MIC [4, 19]: 0.0625 to 0.125 µg/mL (≈ 0.0759 to 0.152 µM); MIC [4, 12]: 0.125 µg/mL (≈ 0.152 µM); MIC [5, 20]: 12.5 to 25 µg/mL (≈ 15.2 to 30.4 µM); MIC [5, 13]: 12.5 µg/mL (≈ 15.2 µM); MIC [6, 21]: 0.39 to 0.78 µg/mL (≈ 0.474 to 0.948 µM); MIC [6, 14]: 0.39 µg/mL (≈ 0.474 µM)
